Test results taken from PubChem BioAssay AID248 (DTP/NCI, 2004).
Several values for one entry are separate records, joined by “and”; a condition that tells them apart may be missing. Equal entries are not always repeated. Toxic doses and inconclusive results are not listed. No stated cut-off is given here; in the data, active means T/C of 150% or more; inactive means T/C below 125%.

Test system: L1210 leukemia ip in BDF1 mice, survival T/C
Assay: NCI In Vivo Anticancer Drug Screen. Data for tumor model L1210 Leukemia (intraperitoneal) in B6D2F1 (BDF1) mice
Details: endpoint: mean survival time, higher = longer survival
Summary of the method: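 Tumor was transplanted into mice, which were then dosed with test compound or vehicle alone. Survival was recorded for each group, and the treated figure was expressed relative to the control figure.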

[1] = dose: 100.0 mg/kg/injection, schedule: Q04DX003 (ip), vehicle: saline with Tween-80
[2] = dose: 400.0 mg/kg/injection, schedule: Q04DX003 (ip), vehicle: saline with Tween-80
[3] = dose: 100.0 mg/kg/injection, schedule: Q01DX001 (ip), vehicle: saline
[4] = dose: 200.0 mg/kg/injection, schedule: Q01DX001 (ip), vehicle: saline
[5] = dose: 400.0 mg/kg/injection, schedule: Q01DX001 (ip), vehicle: saline
[6] = dose: 100.0 mg/kg/injection, schedule: Q04DX002 (ip), vehicle: Klucel (hydroxypropylcellulose) (HPC)
[7] = dose: 200.0 mg/kg/injection, schedule: Q04DX002 (ip), vehicle: Klucel (hydroxypropylcellulose) (HPC)
[8] = dose: 25.0 mg/kg/injection, schedule: Q04DX003 (ip), vehicle: saline
[9] = dose: 50.0 mg/kg/injection, schedule: Q01DX001 (ip), vehicle: Klucel (hydroxypropylcellulose) (HPC)
[10] = dose: 100.0 mg/kg/injection, schedule: Q01DX001 (ip), vehicle: Klucel (hydroxypropylcellulose) (HPC)
[11] = dose: 25.0 mg/kg/injection, schedule: Q04DX003 (ip), vehicle: Klucel (hydroxypropylcellulose) (HPC)
[12] = dose: 100.0 mg/kg/injection, schedule: Q01DX009 (ip), vehicle: acetone
[13] = dose: 200.0 mg/kg/injection, schedule: Q01DX009 (ip), vehicle: acetone
[14] = dose: 100.0 mg/kg/injection, schedule: Q01DX009 (ip), vehicle: Klucel (hydroxypropylcellulose) (HPC)
[15] = dose: 100.0 mg/kg/injection, schedule: Q01DX009 (ip), vehicle: saline with Tween-80
[16] = dose: 200.0 mg/kg/injection, schedule: Q01DX009 (ip), vehicle: Klucel (hydroxypropylcellulose) (HPC)
[17] = dose: 200.0 mg/kg/injection, schedule: Q01DX009 (ip), vehicle: saline with Tween-80
[18] = dose: 400.0 mg/kg/injection, schedule: Q01DX009 (ip), vehicle: Klucel (hydroxypropylcellulose) (HPC)
[19] = dose: 400.0 mg/kg/injection, schedule: Q01DX009 (ip), vehicle: saline with Tween-80

Measured: T/C

O=C(Nc1ccccc1)N(O)c1ccccc1
inactive: dose: 9.0 mg/kg/injection, schedule: Q01DX015 (ip), vehicle: methylcellulose (MC) 97 % of control | dose: 18.0 mg/kg/injection, schedule: Q01DX015 (ip), vehicle: methylcellulose (MC) 97 % of control | dose: 25.0 mg/kg/injection, schedule: Q01DX015 (ip), vehicle: methylcellulose (MC) 112 % of control | dose: 37.5 mg/kg/injection, schedule: Q01DX015 (ip), vehicle: methylcellulose (MC) 95 % of control | dose: 50.0 mg/kg/injection, schedule: Q01DX015 (ip), vehicle: methylcellulose (MC) 103 % of control | dose: 100.0 mg/kg/injection, schedule: Q01DX015 (ip), vehicle: methylcellulose (MC) 103 % of control | dose: 200.0 mg/kg/injection, schedule: Q01DX015 (ip), vehicle: methylcellulose (MC) 101 % of control

c1ccc(COc2ccc(Cc3nccc4ccccc34)cc2OCc2ccccc2)cc1
inactive: [1] 88 % of control | [2] 88 % of control

OCC1OC(n2c3ccccc3c3ccccc32)C(O)C1O (stereo not given)
inactive: dose: 60.0 mg/kg/injection, schedule: Q04DX002 (ip), vehicle: DMSO 97 % of control | dose: 120.0 mg/kg/injection, schedule: Q04DX002 (ip), vehicle: DMSO 102 % of control

Oc1ccc(Cl)cc1/C=N/NC(=S)Nc1cccc2cccnc12
inactive: [3] 111 % of control | [4] 100 % of control | [5] 91 % of control

NCCCCNc1ncnc2c1ncn2C1OC(CO)C(O)C1O (stereo not given)
inactive: dose: 100.0 mg/kg/injection, schedule: Q01DX005 (ip), vehicle: saline 104 % of control | dose: 200.0 mg/kg/injection, schedule: Q01DX005 (ip), vehicle: saline 116 % of control

O=S(=O)(c1ccccc1)C(Br)c1ccccc1 (stereo not given)
inactive: [6] 101 % of control | [7] 105 % of control | dose: 400.0 mg/kg/injection, schedule: Q04DX002 (ip), vehicle: Klucel (hydroxypropylcellulose) (HPC) 97 % of control

O=C1NC(=O)C(CO)(c2ccccc2)N1 (stereo not given)
inactive: dose: 12.5 mg/kg/injection, schedule: Q04DX003 (ip), vehicle: saline 110 % of control | [8] 103 % of control | dose: 50.0 mg/kg/injection, schedule: Q04DX003 (ip), vehicle: saline 100 % of control | dose: 100.0 mg/kg/injection, schedule: Q04DX003 (ip), vehicle: saline 94 % of control | dose: 200.0 mg/kg/injection, schedule: Q04DX003 (ip), vehicle: saline 97 % of control | dose: 400.0 mg/kg/injection, schedule: Q04DX003 (ip), vehicle: saline 100 % of control

O=C(Nc1ccc(NS(=O)(=O)c2ccccc2)cc1Cl)c1ccccc1
inactive: [9] 104 % of control | [10] 108 % of control | dose: 200.0 mg/kg/injection, schedule: Q01DX001 (ip), vehicle: Klucel (hydroxypropylcellulose) (HPC) 90 % of control

CCCCC(=O)N1C(=O)Cc2ccccc21
inactive: dose: 50.0 mg/kg/injection, schedule: Q04DX002 (ip), vehicle: Klucel (hydroxypropylcellulose) (HPC) 97 % of control | [6] 97 % of control | [7] 97 % of control

BrCC(Br)=C(Br)Br
inactive: dose: 6.0 mg/kg/injection, schedule: Q04DX003 (ip), vehicle: Klucel (hydroxypropylcellulose) (HPC) 105 % of control | dose: 12.0 mg/kg/injection, schedule: Q01DX001 (ip), vehicle: Klucel (hydroxypropylcellulose) (HPC) 88 % of control | dose: 12.0 mg/kg/injection, schedule: Q04DX003 (ip), vehicle: Klucel (hydroxypropylcellulose) (HPC) 91 % of control | dose: 25.0 mg/kg/injection, schedule: Q01DX001 (ip), vehicle: Klucel (hydroxypropylcellulose) (HPC) 97 % of control and 101 % of control | [11] 91 % of control | [9] 93 % of control and 90 % of control | [10] 97 % of control

CC1c2cc(C(=O)O)ccc2OC1(C)C (stereo not given)
inactive: [3] 96 % of control | [4] 102 % of control | [5] 91 % of control

OCC1OC(c2[nH]nc3c([Se])ncnc23)C(O)C1O (stereo not given)
inactive: dose: 1.56 mg/kg/injection, schedule: Q01DX005 (ip), vehicle: saline 95 % of control | dose: 1.56 mg/kg/injection, schedule: Q01DX009 (ip), vehicle: saline 95 % of control | dose: 3.12 mg/kg/injection, schedule: Q01DX005 (ip), vehicle: saline 97 % of control | dose: 3.12 mg/kg/injection, schedule: Q01DX009 (ip), vehicle: saline 100 % of control | dose: 6.25 mg/kg/injection, schedule: Q01DX005 (ip), vehicle: saline 99 % of control | dose: 6.25 mg/kg/injection, schedule: Q01DX009 (ip), vehicle: saline 97 % of control | dose: 12.5 mg/kg/injection, schedule: Q01DX009 (ip), vehicle: saline 90 % of control

IC1=CC2CCC(C1)C2 (stereo not given)
inactive: [12] 109 % of control | [13] 97 % of control

N#CCCCCCl
inactive: dose: 6.0 mg/kg/injection, schedule: Q01DX009 (ip), vehicle: saline 103 % of control | dose: 12.0 mg/kg/injection, schedule: Q01DX009 (ip), vehicle: saline 105 % of control | dose: 12.0 mg/kg/injection, schedule: Q04DX003 (ip), vehicle: saline 97 % of control | dose: 25.0 mg/kg/injection, schedule: Q01DX009 (ip), vehicle: saline 103 % of control | [8] 96 % of control

S=C(S)Nc1cccc2ccccc12
inactive: dose: 12.5 mg/kg/injection, schedule: Q01DX009 (ip), vehicle: Klucel (hydroxypropylcellulose) (HPC) 103 % of control | dose: 12.5 mg/kg/injection, schedule: Q04DX003 (ip), vehicle: Klucel (hydroxypropylcellulose) (HPC) 100 % of control | dose: 25.0 mg/kg/injection, schedule: Q01DX009 (ip), vehicle: Klucel (hydroxypropylcellulose) (HPC) 98 % of control | [11] 94 % of control | dose: 50.0 mg/kg/injection, schedule: Q01DX009 (ip), vehicle: Klucel (hydroxypropylcellulose) (HPC) 92 % of control | dose: 50.0 mg/kg/injection, schedule: Q04DX003 (ip), vehicle: Klucel (hydroxypropylcellulose) (HPC) 100 % of control | [14] 94 % of control | [15] 89 % of control | dose: 100.0 mg/kg/injection, schedule: Q04DX003 (ip), vehicle: Klucel (hydroxypropylcellulose) (HPC) 98 % of control | [1] 93 % of control and 86 % of control | [16] 94 % of control | [17] 88 % of control | dose: 200.0 mg/kg/injection, schedule: Q04DX003 (ip), vehicle: Klucel (hydroxypropylcellulose) (HPC) 96 % of control | dose: 200.0 mg/kg/injection, schedule: Q04DX003 (ip), vehicle: saline with Tween-80 95 % of control and 86 % of control | [18] 99 % of control | [19] 104 % of control | dose: 400.0 mg/kg/injection, schedule: Q04DX003 (ip), vehicle: Klucel (hydroxypropylcellulose) (HPC) 91 % of control | [2] 101 % of control and 86 % of control

CC(C)C1OCCO1
inactive: dose: 50.0 mg/kg/injection, schedule: Q01DX009 (ip), vehicle: acetone 92 % of control | [12] 101 % of control | [13] 95 % of control

Cc1ccccc1NC(=O)C1CCC(C)(C(=O)O)C1(C)C (stereo not given)
inactive: [15] 102 % of control | [17] 102 % of control | [19] 95 % of control

O=C(Nc1cc([N+](=O)[O-])ccc1O)Nc1cccc(Cl)c1Cl
inactive: [14] 88 % of control | [16] 100 % of control | [18] 92 % of control

O=C(Cc1ccccc1)Nc1cccc(O)c1
inactive: dose: 100.0 mg/kg/injection, schedule: Q01DX001 (ip), vehicle: saline with Tween-80 97 % of control | dose: 200.0 mg/kg/injection, schedule: Q01DX001 (ip), vehicle: saline with Tween-80 96 % of control | dose: 400.0 mg/kg/injection, schedule: Q01DX001 (ip), vehicle: saline with Tween-80 95 % of control
